Experiment: logP determination through HPLC (EEC directive 79/831 Annex V. A8, gradient method, acetonitrile/0.1% aqueous phosphoric acid)
Assay type: physicochemical
[1] = Table 1, compounds of formula (I), HPLC gradient method, acetonitrile/0.1% aqueous phosphoric acid

Cc1nc2nc(Cl)c(-c3ncccc3C(F)(F)F)c(N[C@@H](C)C(F)(F)F)n2n1 [Example 1, N-{5-chloro-2-methyl-6-[3-(trifluormethyl)-2-pyridinyl][1,2,4]triazolo-[1,5-a]pyrimidin-7-yl}-N-[(1S)-2,2,2-trifluor-1-methylethyl]amine]
chromatographic logP (HPLC): 2.38

CC(C)C(C)Nc1c(-c2scnc2Cl)c(Cl)nc2nc(C3CC3)nn12 (stereo not drawn) [Example 92]
logP [1]: 3.23

Cc1nc2nc(Cl)c(-c3ncccc3[N+](=O)[O-])c(Cl)n2n1 [Example 120]
logP (Table 2, precursors of formula (II)): 1.68

CC1CN(c2c(-c3ccsc3)c(Cl)nc3nc(C4CC4)nn23)CC(C)O1 (stereo not drawn) [Example 67]
logP [1]: 3.26

CC(Nc1c(-c2ncccc2[N+](=O)[O-])c(Cl)nc2nc(C3CC3)nn12)C(C)(C)C (stereo not drawn) [Example 20]
logP [1]: 3.21

COCCN(C)c1c(-c2ccsc2)c(Cl)nc2nc(C3CC3)nn12 [Example 64]
logP [1]: 2.91

FC1(F)CCN(c2c(-c3ncccc3C(F)(F)F)c(Cl)nc3nc(C4CC4)nn23)CC1 [Example 4]
logP [1]: 3.20

FC(F)(F)CNc1c(-c2ccncc2Cl)c(Cl)nc2nc(C3CC3)nn12 [Example 40]
logP [1]: 2.48

CC(Nc1c(-c2ncncc2Cl)c(Cl)nc2nc(C3CC3)nn12)C(F)(F)F (stereo not drawn) [Example 8]
logP [1]: 2.69

CCC(C)Nc1c(-c2ccsc2)c(Cl)nc2nc(C3CC3)nn12 (stereo not drawn) [Example 78]
logP [1]: 3.41

Cc1nc2nc(O)c(-c3ncccc3C(F)(F)F)c(O)n2n1 [Example 126]
logP (Table 3, precursors of formula (IV)): −0.03

CC(C)C(C)Nc1c(-c2ncncc2Cl)c(Cl)nc2nc(C3CC3)nn12 (stereo not drawn) [Example 15]
logP [1]: 2.94

FC(F)(F)CNc1c(-c2ccsc2)c(Cl)nc2nc(C3CC3)nn12 [Example 60]
logP [1]: 2.87

C[C@H](Nc1c(-c2ncccc2[N+](=O)[O-])c(Cl)nc2nc(C3CC3)nn12)C(F)(F)F (single isomer, unassigned) [Example 16]
logP [1]: 2.64

C[C@H](Nc1c(-c2ncccc2[N+](=O)[O-])c(Cl)nc2nc(C3CC3)nn12)C(F)(F)F (single isomer, unassigned) [Example 17]
logP [1]: 2.65 (Iso- mer)

CC(C)Nc1c(-c2cc(Cl)sc2Cl)c(Cl)nc2nc(C3CC3)nn12 [Example 48]
logP [1]: 4.18

CC(Nc1c(-c2ncncc2F)c(Cl)nc2nc(C3CC3)nn12)C(C)(C)C (stereo not drawn) [Example 103]
logP [1]: 3.18

CC(Nc1c(-c2ccncc2Cl)c(Cl)nc2nc(C3CC3)nn12)C(F)(F)F (stereo not drawn) [Example 44]
logP [1]: 2.78

Reference: patent publication US20070179295A1, “Triazolopyrimidines” (priority 2003, published 2007)
